According to patent publication US8921398B2 (Boehringer Ingelheim International GmbH, priority 2011, dated 2014):
pEC50: −log10 of the molar value.

Each compound was assayed against T1, human GPR119 (Homo sapiens, UniProt Q8TDV5) (assay: AlphaScreen cAMP assay in MIN6 cells stably transfected with human GPR119). Conditions: Min-6/hGPR119 cells, 45 minutes incubation at room temperature.
T1 construct: expression vector for human GPR119 cDNA (Acc. No. NP_848566); expressed in transfected cells
T1 sequence (Q8TDV5 1-335): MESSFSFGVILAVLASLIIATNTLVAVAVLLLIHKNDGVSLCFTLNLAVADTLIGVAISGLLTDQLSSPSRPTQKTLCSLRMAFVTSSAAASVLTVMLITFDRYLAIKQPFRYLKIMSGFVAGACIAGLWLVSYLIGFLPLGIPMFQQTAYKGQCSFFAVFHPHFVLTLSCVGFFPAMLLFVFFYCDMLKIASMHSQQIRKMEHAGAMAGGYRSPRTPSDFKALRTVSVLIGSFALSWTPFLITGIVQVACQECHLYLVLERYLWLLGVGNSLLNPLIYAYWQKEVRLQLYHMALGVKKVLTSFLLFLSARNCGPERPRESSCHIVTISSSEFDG
Type: cell-based
Procedure: The compounds of formula I according to the invention modulate the activity of the G-protein-coupled receptor GPR119. The effect of the compounds on the activation of GPR119 and on the stimulation of intracellular cAMP concentration is determined using the AlphaScreen cAMP Assay Kit (Cat.No.#6760625R) made by PerkinElmer.
MIN6 cells [Miyazaki J et al. Endocrinology. 1990 July; 127(1):126-32] are stably transfected with an expression vector for human GPR119 cDNA (Acc. No. NP_848566). Min-6/hGPR119 cells are cultured in DMEM, 10% FBS, 50 μM β-mercaptoethanol, 0.3 mg/mL Geniticin, 2 mM GlutaMAX at 37° C. 5% CO2. For the assay, the cells are seeded in Optiplates (white, 384-well, 160W-barcoded, TC, sterile with lid, Cat.No.#6007688 (Perkin Elmer); 10000 cells/well; 50 μl). The plates covered with lids are then incubated for 24 hours at 37° C./5% CO2. After the medium is aspirated from the wells completely, 10 μl of the test compound are added, the compounds are diluted using stimulating buffer (140 mM NaCl, 3.6 mM KCl, 0.5 mM NaH2PO4, 0.5 mM MgSO4, 1.5 mM CaCl2, 10 mM Hepes, 5 mM NaHCO3; pH 7.4. 0.5 mM IBMX and 0.1% BSA, the final DMSO concentration is 1%). After 45 minutes incubation at room temperature (approx. 20° C.), the cAMP concentrations are determined using the AlphaScreen cAMP Assay Kit (Cat.No.#6760625R from PerkinElmer).

| pEC50 | Structure (SMILES) |
| --- | --- |
| 7.51 | O=C(c1cnc(-n2ccnc2)nc1)N(C1CC1)C1CCN(c2nc(-c3ccccc3)no2)CC1 [Example 1, 2-Imidazol-1-yl-pyrimidine-5-carboxylic acid cyclopropyl-[1-(3-phenyl-[1,2,4]oxadiazol-5-yl)-piperidin-4-yl]-amide] |
| 7.96 | O=C(c1cnc(-c2ccncc2)nc1)N(C1CC1)C1CCN(c2nc(-c3ccccc3)no2)CC1 [Example 2, 2-Pyridin-4-yl-pyrimidine-5-carboxylic acid cyclopropyl-[1-(3-phenyl-[1,2,4]oxadiazol-5-yl)-piperidin-4-yl]-amide] |
| 6.31 | CCOc1ccc(-c2ncc(C(=O)N(C3CC3)C3CCN(c4ncc(CC)cn4)CC3)cn2)cn1 [Example 3, 2-(6-Ethoxy-pyridin-3-yl)-pyrimidine-5-carboxylic acid cyclopropyl-[1-(5-ethyl-pyrimidin-2-yl)-piperidin-4-yl]-amide] |
| 7.03 | CCc1cnc(N2CCC(N(C(=O)c3cnc(-c4ccc(C#N)c(F)c4)nc3)C3CC3)CC2)nc1 [Example 4] |
| 6.93 | CCc1cnc(N2CCC(N(C(=O)c3cnc(-c4ccc(CC#N)cc4)nc3)C3CC3)CC2)nc1 [Example 5, 2-(4-Cyanomethyl-phenyl)-pyrimidine-5-carboxylic acid cyclopropyl-[1-(5-ethyl-pyrimidin-2-yl)-piperidin-4-yl]-amide] |
| 7.02 | CC(C)c1noc(N2CCC(N(C(=O)c3ccc(-c4ccc(S(C)(=O)=O)cc4)nc3)C3CC3)CC2)n1 [Example 6, N-Cyclopropyl-N-[1-(3-isopropyl-[1,2,4]oxadiazol-5-yl)-piperidin-4-yl]-6-(4-methanesulfonyl-phenyl)-nicotinamide] |
| 7.60 | CCOc1ccc(-c2ncc(C(=O)N(C3CC3)C3CCN(c4nc(-c5ccccc5)no4)CC3)cn2)cn1 [Example 7, 2-(6-Ethoxy-pyridin-3-yl)-pyrimidine-5-carboxylic acid cyclopropyl-[1-(3-phenyl[1,2,4]oxadiazol-5-yl)-piperidin-4-yl]amide] |
| 7.44 | CCc1noc(N2CCC(N(C(=O)c3cnc(-c4ccc(CC#N)cc4)nc3)C3CC3)CC2)n1 [Example 8, 2-(4-Cyanomethyl-phenyl)-pyrimidine-5-carboxylic acid cyclopropyl-[1-(3-ethyl-[1,2,4]oxadiazol-5-yl)-piperidin-4-yl]-amide] |
| 7.72 | N#CCc1ccc(-c2ncc(C(=O)N(C3CC3)C3CCN(c4nc(-c5ccccc5)no4)CC3)cn2)cc1 [Example 9, 2-(4-Cyanomethyl-phenyl)-pyrimidine-5-carboxylic acid cyclopropyl-[1-(3-phenyl-[1,2,4]oxadiazol-5-yl)-piperidin-4-yl]-amide] |

These compounds were tested against T2, mutant form of the human GPR119 receptor (Homo sapiens, UniProt Q8TDV5, S329A/T327A) (assay: LANCE cAMP-384 assay in HEK293 cells stably expressing a mutant form of the human GPR119 receptor). Conditions: cAMP accumulation, GPR119 stable HEK293 cells, LANCE kit, 20 min at 37° C.
T2 construct: expressed in transfected cells
T2 sequence (Q8TDV5 with tags, fused parts or gaps T327A/S329A): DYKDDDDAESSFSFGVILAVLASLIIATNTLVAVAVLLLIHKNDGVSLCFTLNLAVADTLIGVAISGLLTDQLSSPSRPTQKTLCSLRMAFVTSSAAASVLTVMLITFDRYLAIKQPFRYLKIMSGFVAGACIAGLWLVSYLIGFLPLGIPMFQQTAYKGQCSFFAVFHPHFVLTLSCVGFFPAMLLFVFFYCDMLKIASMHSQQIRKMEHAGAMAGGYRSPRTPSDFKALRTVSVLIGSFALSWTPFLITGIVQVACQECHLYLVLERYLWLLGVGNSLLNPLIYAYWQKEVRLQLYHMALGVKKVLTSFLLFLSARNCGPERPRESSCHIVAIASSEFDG
Type: cell-based
Procedure: Quantitative detection of cAMP accumulation from cells expressing human GPR119 receptor is achieved using Perkin Elmer's LANCE cAMP-384 Kit (Cat#AD0264) according to the manufacturer's protocol. Briefly, HEK293 cells stably expressing a mutant form of the human GPR119 receptor as assay tool (Methionine 1 replaced with the amino acid sequence […], and T327 & S329 changed to alanines; SEQ ID No. 1) are grown to 50-70% confluency in cell culture media (DMEM, 10% heat inactivated Fetal Bovine Serum, 50 I.U./mL penicillin, 50 μg/mL streptomycin, 10 mM HEPES, 20 μg/mL G418 Sulfate). On the day of the assay, GPR119 stable HEK293 cells are lifted from the tissue culture plate and 1000 cells/well are incubated along with various concentrations of test compounds for 20 min at 37° C. Detection Buffer (50 mM HEPES, 10 mM calcium chloride, 0.35% Triton X-100, 1 mg/mL BSA) containing cAMP-specific antibody is then added to all wells and allowed to equilibrate in the dark for 10 minutes at room temperature. Upon equilibration, Detection Buffer containing europium-labeled cAMP tracer complex is added to all wells and allowed to react for 1 hour at room temperature. After 1 hour, bound europium-labeled cAMP tracer is measured using a Perkin Elmer Envision plate reader. The quantity of cAMP generated in each well is derived from a standard curve. EC50 is determined using nonlinear regression analysis of the cAMP values over a range of agonist concentration (12 points spanning the range from 30 μM to 100 pM).

| Structure (SMILES) | pEC50 |
| --- | --- |
| CCc1cnc(N2CC[C@@H](N(C(=O)c3cn(-c4ccc(C#N)cc4F)c(C)n3)C3CC3)[C@@H](F)C2)nc1 (single isomer, unassigned) [Example 112] | 6.10 |
| Cc1nccn1-c1ccc(C(=O)N(C2CC2)C2CCN(c3ncc(C(F)(F)F)cc3F)CC2)cn1 [Example 43] | 7.14 |
| Cc1ncnn1-c1ccc(C(=O)N(C2CC2)C2CCN(c3ncc(C(F)(F)F)cc3F)CC2)cn1 [Example 44] | 7.66 |
| O=C(c1cnc(-n2cncn2)cn1)N(C1CC1)C1CCN(c2ncc(C(F)(F)F)cc2F)CC1 [Example 46] | 7.11 |
| O=C(c1cnc(-n2cncn2)nc1)N(C1CC1)C1CCN(c2ncc(C(F)(F)F)cc2F)CC1 [Example 47] | 6.90 |
| Cc1ncn(-c2cnc(C(=O)N(C3CC3)C3CCN(c4ncc(C(F)(F)F)cc4F)CC3)cn2)n1 [Example 48] | 7.57 |
| Cc1nnnn1-c1ccc(C(=O)N(C2CC2)C2CCN(c3ncc(C(F)(F)F)cc3F)CC2)cn1 [Example 49] | 8.05 |
| Cc1ncnn1-c1ncc(C(=O)N(C2CC2)C2CCN(c3ncc(C(F)(F)F)cc3F)CC2)cn1 [Example 50] | 6.83 |
| Cc1nccn1-c1ccc(C(=O)N(C2CC2)C2CCN(c3nc(C(C)C)no3)CC2)cn1 [Example 51] | 6.23 |
| Cc1ncnn1-c1ccc(C(=O)N(C2CC2)C2CCN(c3nc(C(C)C)no3)CC2)cn1 [Example 52] | 6.64 |
| Cc1nccn1-c1cnc(C(=O)N(C2CC2)C2CCN(c3nc(C(C)C)no3)CC2)cn1 [Example 53] | 6.09 |
| CC(C)c1noc(N2CCC(N(C(=O)c3cnc(-n4cncn4)cn3)C3CC3)CC2)n1 [Example 54] | 6.09 |
| Cc1nccn1-c1ncc(C(=O)N(C2CC2)C2CCN(c3nc(C(C)C)no3)CC2)cn1 [Example 55] | 6.29 |
| Cc1ncn(-c2cnc(C(=O)N(C3CC3)C3CCN(c4nc(C(C)C)no4)CC3)cn2)n1 [Example 56] | 6.33 |
| Cc1nnnn1-c1ccc(C(=O)N(C2CC2)C2CCN(c3nc(C(C)C)no3)CC2)cn1 [Example 57] | 6.64 |
| CCc1cnc(N2CCC(N(C(=O)c3ccc(-n4ccnc4C)nc3)C3CC3)CC2)nc1 [Example 58] | 6.26 |
| CCc1cnc(N2CCC(N(C(=O)c3cnc(-n4ccnc4C)cn3)C3CC3)CC2)nc1 [Example 59] | 5.91 |
| CCc1cnc(N2CCC(N(C(=O)c3cnc(-n4cncn4)cn3)C3CC3)CC2)nc1 [Example 60] | 7.54 |
| CCc1cnc(N2CCC(N(C(=O)c3cnc(-n4cncn4)nc3)C3CC3)CC2)nc1 [Example 61] | 7.01 |
| CCc1cnc(N2CCC(N(C(=O)c3cnc(-n4cnc(C)n4)cn3)C3CC3)CC2)nc1 [Example 62] | 6.73 |
| Cc1nccn1-c1ccc(C(=O)N(C2CC2)C2CCN(c3ncc(Cl)cn3)CC2)cn1 [Example 63] | 6.41 |
| Cc1ncnn1-c1ccc(C(=O)N(C2CC2)C2CCN(c3ncc(Cl)cn3)CC2)cn1 [Example 64] | 6.60 |
| Cc1nccn1-c1cnc(C(=O)N(C2CC2)C2CCN(c3ncc(Cl)cn3)CC2)cn1 [Example 65] | 6.48 |
| O=C(c1cnc(-n2cncn2)nc1)N(C1CC1)C1CCN(c2ncc(Cl)cn2)CC1 [Example 66] | 7.14 |
| Cc1nccn1-c1ncc(C(=O)N(C2CC2)C2CCN(c3ncc(Cl)cn3)CC2)cn1 [Example 67] | 7.35 |
| Cc1ncn(-c2cnc(C(=O)N(C3CC3)C3CCN(c4ncc(Cl)cn4)CC3)cn2)n1 [Example 68] | 6.90 |
| CCc1cnc(N2CCC(N(C(=O)c3cn(-c4ccc(C#N)cn4)cn3)C3CC3)CC2)nc1 [Example 104] | 7.21 |
| CCc1cnc(N2CCC(N(C(=O)c3cn(-c4ccc(S(C)(=O)=O)cc4F)cn3)C3CC3)CC2)nc1 [Example 105] | 6.63 |
| CCc1cnc(N2CCC(N(C(=O)c3cn(-c4ccc(C#N)cc4F)cn3)C3CC3)CC2)nc1 [Example 106] | 7.24 |
